Experimental findings from patent US9872824B2, “Semi-permanent hair straightening composition and method” (Lubrizol Advanced Materials, Inc., priority 2013, dated 2018) are described below.

Series [1] is described as follows: Solution dipping, flat-iron thermal straightening, imaging analysis of tress length and width. Also noted: species or system human. The conditions noted are these: for Ranking for semi-permanent thermal straightening efficiency: from imaging analysis data; for Comparative straightening behaviour in words: imaging analysis data. How it is done: (§1) This method is used primarily to screen and select candidate molecules as possible thermally-activated agents. Typically, a solution of the candidate molecule is prepared in a suitable solvent system. The hair-tress is immersed completely in the solution with controlled concentration of candidate thermally-activated agent, pH, temperature and soaking time, such as for up to 60 minutes. Then, the hair-tress is removed from the solution, excess amount of material squeezed out, and the tress is blow-dried to at least 95% dryness before thermal straightening.
2. Image Analysis: the method can be used to quantify the curly hair-tress thermal straightening efficiency for different treatments. Measurements of tress length and width at half-length can be made with this method.
As for other tests, a curly hair-tress was completely immersed in an aqueous solution of a selected one of the small molecules and soaked for 45 minutes. Each solution contained an equimolar amount of the selected small molecule. The hair-tress was then removed from the solution, excess water was squeezed out manually, and the hair dried by a blower dryer to the desired dryness before thermal straightening, as described above.
The imaging analysis method was used to measure the total length and width of the hair-tress before and after the thermal straightening process, and after each shampoo-wash-cycle. More specifically, photographs of hair tresses or bundles of hair tresses were taken against a solid color background with a tripod-mounted digital camera. Illumination was selected to minimize shadows which could affect measurements. The tress was hung from a spindle that enabled the tress to be rotated 90 degrees so that pictures could be taken from four different angles, providing a full view of the tress, with a ruler mounted close to the tress as a scale.
The National Institutes for Health's Image J software program was used for image processing and analysis. […] The curly hair-tress has a contour length of 20 cm, and the top glued part is 2.0 cm wide and is about 0.4 cm of length. Therefore, the effective hair-tress contour length is 19.6 cm.

Series [2] is described as follows: Solution-dipping screening, flat-iron straightening, shampoo-wash-fastness. Also noted: species or system human. The conditions noted are these: used alone under the same conditions. How it is done:
as §1
The shampoo-wash-fastness is carried out by applying shampoo (VO5 or Suave shampoo) on the hair-tress which is massaged for 30 seconds followed by rinsing for 60 seconds with running warm water (32-35° C.). The washed hair-tress is then dried at 23° C. and 50% RH. Consecutive shampoo-wash-cycles are carried out without the drying step.
In the following initial screening test, the examination of thermally straightened hair-tresses is performed by visually examining a tress which has been treated in a solution containing up to 30 wt. % of a candidate thermally-activated agent for 45 minutes, flat-ironed at 210° C. (10×12 seconds). After three consecutive wash cycles, if the dried hair-tress (23° C. and 50% RH) becomes curly, this material is considered not effective, i.e. not worth a further evaluation in a cream formulation.

Series [3] is described as follows: Solubility in water at room temperature. Type of series: physicochemical. The settings on record: room temperature (25° C.).
Setting [4] is: average over 1-24 shampoos after thermal treatment.
Setting [5] is: thermally-treated tress, equimolar aqueous solution, 45 min soak.
[6] abbreviates: thermally-treated tress, width at half-length.

As to `O=C1NCCN1` [EU, Ethylene Urea], in series [1] (setting [4]), the “Front: Width1/2” value is reported as 4.1 ± 0.2 cm, the Lengthmax was 18.2 ± 0.2 cm and the “Side: Width1/2” value stood at 2.6 ± 0.1 cm. Moreover, in series [1], the “Ranking for semi-permanent thermal straightening efficiency” value (from here on “Ranking”) is “GA≈EC≈F≧TC>O>EU>U” and the “Comparative straightening behaviour in words” value is recorded as “relax the curly hair-tress to some degree”. Besides, the Lengthmax in series [1] (setting [5]) came out at 19.4 cm. Also, in series [1] (setting [6]), the “Front: Width1/2” value amounted to 3.2 cm and the “Side: Width1/2” value stood at 1.6 cm.

Turning to `O=CC(=O)O` [GA, Glyoxylic Acid], in series [1] (setting [4]), the “Front: Width1/2” value is 2.5 ± 0.5 cm, the Lengthmax stood at 19.2 ± 0.3 cm and the “Side: Width1/2” value stood at 1.4 ± 0.2 cm. In addition, the “Ranking” value in series [1] is on record as “GA≈EC≈F≧TC>O>EU>U”. The Lengthmax in series [1] (setting [5]) is on record as 19.5 cm. For the same compound, in series [1] (setting [6]), the “Front: Width1/2” value came out at 2.8 cm and the “Side: Width1/2” value is 1.2 cm.

Turning to `O=C1OCC(CO)O1` (centres unmarked) [GC, glycerol carbonate], in series [2], the “Straightening effectiveness relative to ethylene carbonate” value is listed as “less effective”.

As to `O=C1NCCO1` [O, 2-oxazolidinone], in series [1] (setting [4]), the “Front: Width1/2” value was found to be 3.9 ± 0.2 cm, the Lengthmax was found to be 18.4 ± 0.1 cm and the “Side: Width1/2” value is on record as 2.7 ± 0.2 cm. Further, in series [1], the “Ranking” value is “GA≈EC≈F≧TC>O>EU>U”; the “Comparative straightening behaviour in words” value is “gives better straightening results than urea (U) and ethylene urea (EU)”. The Lengthmax in series [1] (setting [5]) is recorded as 19.3 cm. Also, in series [1] (setting [6]), the “Front: Width1/2” value is reported as 3.3 cm and the “Side: Width1/2” value is recorded as 1.7 cm.

In the case of `CC1COC(=O)O1` (centres unmarked) [PC, propylene carbonate], the Solubility in water entry in series [3] is “up to 20 wt. %”. The “Straightening effectiveness relative to ethylene carbonate” value in series [2] is “less effective”.

Take `O=C1OCCO1` [EC, ethylene carbonate]: in series [1] (setting [4]), the “Front: Width1/2” value came out at 2.6 ± 0.1 cm, the Lengthmax was found to be 19.4 ± 0.1 cm and the “Side: Width1/2” value amounted to 1.5 ± 0.1 cm. In series [1], the “Comparative straightening behaviour in words” value was “behave similarly to formaldehyde (F) and glyoxylic acid (GA)”. This compound also displayed a Lengthmax in series [1] (setting [5]) of 19.4 cm. Besides, in series [1] (setting [6]), the “Front: Width1/2” value was found to be 3.6 cm and the “Side: Width1/2” value turned out to be 0.9 cm.

For the compound `NC(N)=O` [U, Urea], in series [1] (setting [4]), the “Front: Width1/2” value amounted to 5.8 ± 0.2 cm, the Lengthmax stood at 18.2 ± 0.2 cm and the “Side: Width1/2” value was 4.0 ± 0.4 cm. Moreover, in series [1], the “Ranking” value was “GA≈EC≈F≧TC>O>EU>U” and the “Comparative straightening behaviour in words” value was “relax the curly hair-tress to some degree”. In series [1] (setting [5]), the Lengthmax is given as 19.6 cm. Further, in series [1] (setting [6]), the “Front: Width1/2” value is 3.6 cm and the “Side: Width1/2” value is on record as 2.0 cm.
